Test results from US10189795B2, “Aryl amine substituted quinoxaline used as anticancer drugs” (priority 2014, dated 2019).

Key:
H358 = experiment: cell viability of H358 cells, 1 and 10 uM; format: cell-based; conditions: Homo sapiens, NCI-H358
Description: [Worded in the source for another cell line; this cell line is reported under the same test.] (§1) Sorafenib (Nexavar), erlotinib (Tarceva) and Paclitaxel were kindly provided by Bayer Pharmaceuticals (Pittsburgh, Pa., USA) and Roche Pharmaceuticals (Basel, Switzerland) respectively. Okadaic acid (OA) was purchased from Cayman Chemical (Ann Arbor, Mich., USA) and z-VAD-fmk was obtained from Sigma (St. Louis, Mo., USA). For in vitro studies, drugs at various concentrations were dissolved in dimethyl sulfoxide (DMSO), and added to cells in Dulbecco's modified Eagle's medium (DMEM) or Roswell Park Memorial Institute (RPMI) containing 5% fetal bovine serum (FBS).
(§2) The Sk-Hep1, PLC/PRF/5 (PLC) and Hep3B cell lines were obtained from American Type Culture Collection (ATCC; Manassas, Va., USA). The Huh-7 HCC cell line was obtained from the Health Science Research Resources Bank (HSRRB; Osaka, Japan; JCRB0403). Cells were maintained in DMEM supplemented with 10% FBS in a 37° C. humidified incubator in an atmosphere of 5% CO^2 in air.

NCI-1703 = experiment: cell viability of NCI-1703 cells, 1 and 10 uM of each erlotinib derivative, and IC50; format: cell-based; conditions: Homo sapiens
Description: [Worded in the source for another cell line; this cell line is reported under the same test.] as §1, §2

NCI-H226 = experiment: cell viability of NCI-H226 cells, 1 and 10 uM; format: cell-based; conditions: Homo sapiens
Description: [Worded in the source for another cell line; this cell line is reported under the same test.] as §1, §2

A549 = experiment: cell viability of A549 cells, 1 and 10 uM; format: cell-based; conditions: Homo sapiens
Description: [Worded in the source for another cell line; this cell line is reported under the same test.] as §1, §2

BA (%), Table 5 = conditions: in vivo
H520 = experiment: cell viability of H520 cells, 1 and 10 uM; format: cell-based; conditions: Homo sapiens, NCI-H520
Description: [Worded in the source for another cell line; this cell line is reported under the same test.] as §1, §2

PP2A = PP2A phosphatase activity (malachite green-phosphate assay in cell lysate); format: cell-based
Description: The protein phosphatase activity in each cell lysate was determined by measuring the generation of free phosphate from threonine phosphopeptide using the malachite green-phosphate complex assay as described by the manufacturer (Upstate Biotechnology, Lake Placid, N.Y., USA). In brief, HCC cell lysates were first prepared in a low-detergent lysis buffer. […] After incubation for 10 min at 30° C., the malachite dye was added and free phosphate was measured by optical density at 650 nm. In order to avoid variation resulting from differences in the amount of immunoprecipitation protein between samples, the phosphatase activities were normalized to the amounts of PP2A immunoprecipitated, which were detected and quantified by immunoblot analysis for each treatment group.

SET-PP2Ac binding = target: T1, SET-PP2Ac binding (Homo sapiens, UniProt Q01105); experiment: disruption of SET-PP2Ac binding (surface plasmon resonance, co-IP)
T1 construct: His; purchased Genway (SET-His); Abnova (PP2Ac-GST) GWB-ATG319; H00005515
Description: Binding affinities of full-length SET and truncated SET to PP2Ac and the effect of the erlotinib derivatives of the present invention on disrupting SET and PP2Ac were analyzed. PP2Ac-GST recombinant protein was bound in the CMS chip pre-coated with GST-capture antibodies. Sensorgrams were generated by injecting several concentrations of the erlotinib derivatives of the present invention mixed with fixed-concentration of SET recombinant protein, or the mixture of different concentration of truncated SET proteins in a fixed-dose EMQA. PP2Ac-GST recombinant protein used for this experiment was purchased from Abnova (H00005515) and SET-His recombinant protein was obtained from Genway (GWB-ATG319).
EMQA reactivates PP2A by disrupting the binding of SET-PP2Ac. To validate the role of SET, the present invention generated Hep3B cells with ectopic expression of myc-tagged SET by transient transfection. […] With a fixed amount of PP2Ac coated on the CM chip, the present invention tested the effects of a fixed-dose of EMQA on interfering different proportions of full-length and truncated forms of SET proteins in SPR system. […] To validate the findings of this ex vivo system, the present invention generated cells with ectopic overexpression of these two truncated forms of Flag-tagged SET proteins by transient transfections.

H2170 = experiment: cell viability of H2170 cells, 1 and 10 uM; format: cell-based; conditions: Homo sapiens, NCI-H2170
Description: [Worded in the source for another cell line; this cell line is reported under the same test.] as §1, §2

SW900 = experiment: cell viability of SW900 cells, 1 and 10 uM; format: cell-based; conditions: Homo sapiens
Description: [Worded in the source for another cell line; this cell line is reported under the same test.] as §1, §2

PLC5 xenograft tumor = PLC5 xenograft tumor growth in nude mice; format: in vivo; conditions: 10 mg/kg, oral gavage daily, 4 weeks, vs control arm
Description: Male NCr athymic nude mice (5-7 weeks of age) were obtained from the National Laboratory Animal Center (Taipei, Taiwan). All experimental procedures using these mice were performed in accordance with protocols approved by the Institutional Laboratory Animal Care and Use Committee of National Taiwan University. Each mouse was inoculated subcutaneously in the dorsal flank with 1×10^6 PLC5 or A549 cells suspended in serum-free medium containing 50% Matrigel (BD Biosciences, Bedford, Mass., USA). When tumors reached 100-150 mm^3, mice were treated with sorafenib, the erlotinib derivatives of the present invention, or vehicle (control) at 10 mg/kg/day daily by oral gavage for 4 weeks.
The present invention used a PLC5 xenograft mouse model to assess the effects of TD-52 in vivo. The present choose sorafenib as one of the comparative treatment arms. Tumor-bearing mice were administered sorafenib (10 mg/kg), TD-52 (10 mg/kg) or DMSO (vehicle, as control). […] The present invention further examined the xenografted tumors taken from mice receiving TD-52 and vehicle to confirm the molecular events in the tumor tissue. […] When PP2A activity was enhanced by TD-52, Akt was dephosphorylated, promoting HCC cell apoptosis.

T1 sequence (Q01105 1-277 isoform Q01105-2): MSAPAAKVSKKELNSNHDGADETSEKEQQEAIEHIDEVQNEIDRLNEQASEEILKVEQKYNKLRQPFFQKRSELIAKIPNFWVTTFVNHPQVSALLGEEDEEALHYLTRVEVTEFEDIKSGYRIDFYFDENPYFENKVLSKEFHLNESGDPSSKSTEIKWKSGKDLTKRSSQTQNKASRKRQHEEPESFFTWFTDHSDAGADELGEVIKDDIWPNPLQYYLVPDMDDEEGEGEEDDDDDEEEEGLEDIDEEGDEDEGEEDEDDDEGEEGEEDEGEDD

SMILES	viability at 1 µM (H358)	viability at 10 µM (H358)	viability at 1 µM (NCI-1703)	viability at 10 µM (NCI-1703)	viability at 1 µM (NCI-H226)	viability at 10 µM (NCI-H226)	viability at 1 µM (A549)	viability at 10 µM (A549)	BA (%) (BA (%), Table 5)	viability at 1 µM (H520)	viability at 10 µM (H520)	minimal concentration for PP2A activation (PP2A)	IC50 (NCI-1703; cell viability)	minimal concentration to disrupt SET-PP2Ac binding (SET-PP2Ac binding)	viability at 1 µM (H2170)	viability at 10 µM (H2170)	viability at 1 µM (SW900)	viability at 10 µM (SW900)	tumor size (PLC5 xenograft tumor)
C#Cc1cccc(Nc2nc3cc([N+](=O)[O-])ccc3nc2Nc2ccc(O)cc2)c1 [TD619, 4-(2-(3-ethynylphenylamino)-7-nitroquinoxalin-3-ylamino)phenol]	87.5 ± 3.6%	22.1 ± 0.6%	119 ± 11.2%	33.6 ± 5.4%	110 ± 18.2%	19.5 ± 0.7%	105 ± 19.5%	20.9 ± 1.7%	62%										
C#Cc1cccc(Nc2nc3ccc([N+](=O)[O-])cc3nc2Nc2cccc(C#C)c2)c1 [TD604, N^2,N^3-bis(3-ethynylphenyl)-6-nitroquinoxaline-2,3-diamine]	115 ± 9%	116 ± 8.5%	15.2 ± 0.5%	12.5 ± 0.3%	40.3 ± 1.7%	5.3 ± 0.3%	117 ± 7.2%	132 ± 5.1%	57%	30.5 ± 13.9%	0.99 ± 0.02%	<50 nM	600 nM	50 to 100 nM	74.7 ± 6.38%	2.06 ± 0.66%	86.1 ± 22.8%	0%	
CNC(=O)c1cc(Oc2ccc(NC(=O)Nc3ccc(Cl)c(C(F)(F)F)c3)cc2)ccn1 [sorafenib, reference compound]																			smaller than those of the control arm
COc1cccc(Nc2nc3ccc([N+](=O)[O-])cc3nc2Nc2cccc(OC)c2)c1 [TD608, N^2,N^3-bis(3-methoxyphenyl)-6-nitroquinoxaline-2,3-diamine]	110 ± 44%	31.7 ± 33.3%	52.8 ± 4.5%	12.7 ± 0.9%	104 ± 2.5%	40.6 ± 2.4%	71.5 ± 35%	10.3 ± 3.5%		97 ± 19.8%	1.77 ± 1.7%	>200 nM		>200 nM	113 ± 8.63%	4.71 ± 0.24%	114 ± 2.6%	39.8 ± 51.2%	
FC(F)(F)Oc1ccc(Nc2nc3ccccc3nc2Nc2ccc(OC(F)(F)F)cc2)cc1 [TD65, N^2,N^3-bis(4-(trifluoromethoxy)phenyl)quinoxaline-2,3-diamine]	27.1 ± 1.2%	18.3 ± 3%	53.2 ± 2.3%	26.3 ± 1%	46.2 ± 2.5%	14.1 ± 1.3%	66.4 ± 6.9%	27.7 ± 2%		18.5 ± 1.23%	0.47 ± 0.06%	50 to 100 nM		<100 nM	77.9 ± 3.48%	0.26 ± 0.1%	0.73 ± 1.32%		
FS(F)(F)(F)(F)c1ccc(Nc2nc3ccccc3nc2Nc2ccc(S(F)(F)(F)(F)F)cc2)cc1 [TD68, N^2,N^3-bis(4-(Pentafluorothio)phenyl)quinoxaline-2,3-diamine]	22.4 ± 1.8%	16.7 ± 0.8%	48.6 ± 2%	33.3 ± 7.1%	40.2 ± 0.3%	14.8 ± 0.3%	57.3 ± 19.1%	32.9 ± 4%		10.1 ± 0.85%	0.47 ± 0.11%	<50 nM		50 nM	69.39 ± 0.67%	0.17 ± 0.16%	3.38 ± 4.64%	0.57 ± 0.22%	
Cc1ccc(Nc2nc3ccccc3nc2Nc2ccc(C)c(O)c2)cc1O [TD66, 5,5′-(quinoxaline-2,3-diylbis(azanediyl))bis(2-methylphenol)]	96.6 ± 0.9%	14.9 ± 3%	84.5 ± 2.3%	10.1 ± 0.2%	71.2 ± 1.2%	4.7 ± 0.1%	55.5 ± 5.1%	11.1 ± 0.6%	22%	104 ± 8.53%	51.7 ± 20.5%				101.5 ± 0.48%	3.7 ± 1.37%	113 ± 4.64%	77.4 ± 20.5%	
